Experimental data published in ChEMBL document CHEMBL1141434, “Chlorocyclinones A-D, chlorinated angucyclinones from Streptomyces sp. strongly antagonizing rosiglitazone-induced PPAR-gamma activation” (J Nat Prod, 2007).

What was measured:
[1] = target: T1, Peroxisome proliferator-activated receptor gamma (Homo sapiens, UniProt P37231); experiment: Displacement of [3H]rosiglitazone from human PPARgamma receptor by scintillation proximity assay
T1 sequence (P37231 whole entry): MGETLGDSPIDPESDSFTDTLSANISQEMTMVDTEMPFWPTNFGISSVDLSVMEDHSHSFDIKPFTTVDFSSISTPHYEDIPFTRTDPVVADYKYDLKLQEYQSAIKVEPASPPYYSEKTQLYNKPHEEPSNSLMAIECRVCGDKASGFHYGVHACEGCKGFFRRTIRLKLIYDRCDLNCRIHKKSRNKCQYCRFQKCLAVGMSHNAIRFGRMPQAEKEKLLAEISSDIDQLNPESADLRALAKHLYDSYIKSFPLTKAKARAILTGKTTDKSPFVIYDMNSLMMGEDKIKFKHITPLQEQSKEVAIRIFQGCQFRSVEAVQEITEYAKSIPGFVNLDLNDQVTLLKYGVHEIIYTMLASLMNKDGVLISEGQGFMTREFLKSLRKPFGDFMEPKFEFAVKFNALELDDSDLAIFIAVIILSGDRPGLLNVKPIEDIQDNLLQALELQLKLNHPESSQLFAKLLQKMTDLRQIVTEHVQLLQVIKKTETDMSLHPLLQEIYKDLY

[2] = target: T1, Peroxisome proliferator-activated receptor gamma; experiment: Antagonist activity at human PPARgamma receptor in CHO-K1 cells assessed as rosiglitazone-induced receptor activation by cell based reporter assay; format: functional
[3] = target: T1, Peroxisome proliferator-activated receptor gamma; experiment: Antagonist activity at human PPARgamma receptor assessed as rosiglitazone-induced receptor activation by alphascreen assay; format: functional

| SMILES | EC50 [1] [nM] | IC50 [2] [nM] | IC50 [3] [nM] |
| --- | --- | --- | --- |
| COC(=O)c1cc2c(c(O)c1C(C)OC(C)=O)C(=O)c1c(O)cc3cc(C)c(Cl)c(OC)c3c1C2=O (configuration not stated) [CHLOROCYCLINONE B] | 160 | 1400 | 100 |
| COC(=O)c1cc2c(c(O)c1C(C)OC(=O)CO)C(=O)c1c(O)cc3cc(C)c(Cl)c(OC)c3c1C2=O (configuration not stated) [CHLOROCYCLINONE C] | 130 | 600 | 90 |
| COc1c(Cl)c(C)cc2cc(O)c3c(c12)C(=O)c1cc2c(c(O)c1C3=O)C(C)OC2=O (configuration not stated) [CHLOROCYCLINONE D] | 260 | 4400 | 320 |
| CCc1c(C(=O)OC)cc2c(c1O)C(=O)c1c(O)cc3cc(C)c(Cl)c(OC)c3c1C2=O [CHLOROCYCLINONE A] | 180 | 7000 | 160 |
